{"source": "paper PMC3989431", "about": "(Peptides, 2013)", "origin": "cited, not measured here", "test_system": "H. zea pupae", "conditions": "earlier in vivo bioassay"}
{"substance": "AWFGPRLa", "values": [{"measurement": "in vivo activity", "value": "without in vivo activity"}]}
